{
  "source": "patent US8110675B2",
  "about": "“TP expression-inhibiting compound and siRNA sequence thereof” (Chang Gung University, priority 2009, dated 2012)",
  "tested_on": "NPC-TW02 and NPC-TW02/TP cells",
  "assay": "cytotoxicity assay with 5′-DFUR, apoptosis by annexin V flow cytometry",
  "assay_type": "cell-based",
  "settings": "TP over-expression, 72 hours",
  "method": "Refer to FIG. 1A and FIG. 1B. A cell line of nasopharyngeal cancer NPC-TW02/TP is established to stably express exogenous TP. First, the TP-expression carrier pcDNA3.1-PT is transfected to the cell line. Next, the cell line is screened and then cultivated in a culture solution having 500 μg/ml G418. Next is performed a cytotoxicity assay, wherein NPC-TW02 and NPC-TW02/TP are respectively processed with 5′-DFUR (Sigma-Aldrich, St. Louis, Mo., USA). Next, the cell lines are further cultivated for 72 hours. Next, the cell membranes are everted to expose phosphatidylserine. Then, phosphatidylserine is analyzed with the Vybrant® Apoptosis Assay Kit #2 (a product of Invitrogen).\nFirstly, 2×10^5 cells are taken out and washed with PBS. Next, a buffer solution (10 mM HEPES, 140 mM NaCl, 2.5 mM CaCl2, pH 7.4) is used to adjust the solution to have a cell concentration of 2×10^6/mL. Next, 5 μl Alexa Fluor® 488 annexin V is added into 100 μl cell suspension, and then the cell suspension reacts at an ambient temperature for 15 minutes. Next, the cell specimens (10000 events) are analyzed with a flow cytometer (a product of Becton Dickinson), as shown in FIG. 3. […] Then, phosphatidylserine is analyzed with the Vybrant® Apoptosis Assay Kit #2 (a product of Invitrogen).",
  "data": [
    {"smiles": "C[C@H]1O[C@@H](n2cc(F)c(=O)[nH]c2=O)[C@H](O)[C@@H]1O", "note": "[5′-DFUR, 5-fluoro-5′-deoxyuridine]", "values": [
      {"measurement": "sensitivity of TP over-expressing nasopharyngeal cancer cells / induction of apoptosis", "value": "can induce the apoptosis of cancer cells"}
    ]}
  ]
}
